Assay results reported in patent US10654872B1, “Polymorphs of dolutegravir and salts thereof” (Laurus Labs Limited, priority 2015, dated 2020).

Legend:
Assay type in all cases: physicochemical
[1] = Stability data of dolutegravir sodium Form-L9 stored at 40±2° C./75±5% RH
Experimental: Dolutegravir sodium Form-L9 was packed in a Low density polyethylene (LDPE) bag with a strip seal, which is again kept in a second low density polyethylene bag with strip seal. The LDPE bag is kept in a high density polyethylene (HDPE) container and well closed and loaded for stability chamber. […] The purity of dolutegravir sodium was analysed using high performance liquid chromatography (“HPLC”) with the conditions is tabulated below: [table]

[2] = Thermal stability of Form-L9 in oven at 60° C. and 100° C. (PXRD, DSC); conditions: for Form after heating, DSC / Form after heating, PXRD: 24 hrs
Experimental: Dolutegravir sodium Form-L9 was kept in an oven at 60° C. and 100° C. for 24 hrs.

[3] = Hygroscopic study at 85% relative humidity; conditions: room temperature, one week (24, 48, 72, 168 hours)
Experimental: Dolutegravir sodium Form-L9 was exposed to 85% relative humidity at room temperature for one week and was analyzed by PXRD at different time intervals such as 24 hours, 48 hours, 72 hours and 168 hours. […] The overlaid PXRD pattern of dolutegravir sodium Form-L9 subjected to hygroscopic study at 85% RH is represented as Figure-25.

[4] = Aqueous solubility at different pH buffers, UV quantification

With `C[C@@H]1CCO[C@H]2Cn3cc(C(=O)NCc4ccc(F)cc4F)c(=O)c(O)c3C(=O)N12` [Form-L9, dolutegravir sodium] the Des fluoro dolutegravir ([1]; 1 month) was 0.08 % w/w, the “PXRD (polymorphic form)” value ([1]; 1 month) was “Form-L9” and the “Purity by HPLC” value ([1]; 1 month) was 99.9 % w/w. The Water content ([1]; 1 month) was 1.9 % w/w, the Des fluoro dolutegravir ([1]; 2 month) was 0.09 % w/w and the “PXRD (polymorphic form)” value ([1]; 2 month) was “Form-L9”. The “Purity by HPLC” value ([1]; 2 month) was 99.9 % w/w, the Water content ([1]; 2 month) was 2 % w/w and the Des fluoro dolutegravir ([1]; 3 month) was 0.10 % w/w. The “PXRD (polymorphic form)” value ([1]; 3 month) was “Form-L9”, the “Purity by HPLC” value ([1]; 3 month) was 99.8 % w/w and the Water content ([1]; 3 month) was 2.3 % w/w. For the same compound, the Des fluoro dolutegravir ([1]; Initial) was 0.09 % w/w, the “PXRD (polymorphic form)” value ([1]; Initial) was “Form-L9” and the “Purity by HPLC” value ([1]; Initial) was 99.8 % w/w. For the same compound, the Water content ([1]; Initial) was 2.2 % w/w, the “Polymorphic and chemical stability on storage” value ([1]; at least up to three months, LDPE bags in HDPE container) was “retained the same polymorphic and chemical identity” and the “Stability at elevated temperatures” value ([2]; 60° C. and 100° C. for 24 hours) was “stable even at elevated temperatures”. For the same compound, the “Form after heating, DSC” value ([2]; 60° C.) was “Form-L9”, the “Form after heating, PXRD” value ([2]; 60° C.) was “Form-L9” and the “Form after heating, DSC” value ([2]; 100° C.) was “Form-L9”. For the same compound, the “Form after heating, PXRD” value ([2]; 100° C.) was “Form-L9”, the “Polymorphic nature after thermal study (PXRD and DSC)” value ([2]; oven at 60° C. and 100° C. for 24 hrs) was “same polymorphic nature retained” and the “Polymorphic nature after hygroscopic study” value [3] was “same polymorphic nature retained”. For the same compound, the “Solubility profile versus dolutegravir sodium anhydrous form” value [4] was “comparable”.
